Structures are written as SMILES. pKd: −log10 of the molar value.

The assay deals with recombinant human SUV39H1 (rhSUV39H1) (Homo sapiens, UniProt O43463). As to the kind of experiment: biochemical.
Chain of recombinant human SUV39H1 (rhSUV39H1) (O43463 whole entry): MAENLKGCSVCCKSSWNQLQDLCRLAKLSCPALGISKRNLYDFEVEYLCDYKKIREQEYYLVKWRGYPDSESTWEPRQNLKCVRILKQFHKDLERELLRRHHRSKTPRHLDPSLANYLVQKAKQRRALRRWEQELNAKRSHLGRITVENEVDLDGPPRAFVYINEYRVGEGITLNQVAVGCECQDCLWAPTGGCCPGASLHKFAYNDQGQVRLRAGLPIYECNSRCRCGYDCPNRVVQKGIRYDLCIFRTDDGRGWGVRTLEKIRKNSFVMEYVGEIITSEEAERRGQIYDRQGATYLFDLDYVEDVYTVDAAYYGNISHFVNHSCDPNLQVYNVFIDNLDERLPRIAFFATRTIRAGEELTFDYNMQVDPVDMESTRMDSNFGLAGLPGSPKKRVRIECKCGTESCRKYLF

With `CC(C)(O)[C@@H]1CC[C@](C)([C@H]2[C@@H](O)C[C@@]3(C)[C@@H]4C[C@H](O[C@@H]5O[C@H](CO)[C@@H](O)[C@H](O)[C@H]5O)[C@H]5C(C)(C)[C@@H](O[C@@H]6OC[C@@H](O)[C@H](O)[C@H]6O)CC[C@@]56C[C@@]46CC[C@]23C)O1` [Astragaloside IV], the pKd (commonly the negative decadic logarithm of the Kd, by convention in mol/L) was 4.67.

The record behind these values is PMC10563463 (Cell Transplantation, 2023).
